These results are taken from patent US20100041696A1, “Compounds” (priority 2006, published 2010).

Structures are written as SMILES. Structures can show the parent of a compound that is named as a salt. Bounds are passed on as bounds.

For this assay, the target named is T1, SCD (stearoyl-CoA desaturase), SCD-containing rat microsomes (Rattus norvegicus, UniProt P07308).
T1 construct: SCD-containing rat microsomes (2 μg protein); from tissue
T1 sequence (P07308 1-358): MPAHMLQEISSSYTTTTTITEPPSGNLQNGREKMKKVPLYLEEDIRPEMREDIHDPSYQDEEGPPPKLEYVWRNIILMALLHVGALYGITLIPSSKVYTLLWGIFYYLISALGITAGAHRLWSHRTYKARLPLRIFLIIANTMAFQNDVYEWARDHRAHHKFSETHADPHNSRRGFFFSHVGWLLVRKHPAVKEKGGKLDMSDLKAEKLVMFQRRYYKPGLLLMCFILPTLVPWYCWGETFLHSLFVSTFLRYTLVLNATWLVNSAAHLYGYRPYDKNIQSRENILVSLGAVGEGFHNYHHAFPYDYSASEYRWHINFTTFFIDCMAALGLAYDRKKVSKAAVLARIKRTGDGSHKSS
Put plainly: in vitro assay for SCD activity based on production of [3H]H2O from [9,10-3H] stearoyl Coenzyme A. The format is biochemical. To be noted: SCD-containing rat microsomes (2 μg protein), substrate [9,10-3H] stearoyl Coenzyme A 1 μM, 5 minutes preincubation, 6 minutes incubation; read-out: average pIC50 value, in vitro assay for SCD activity (converted). The method, then: The compounds of the present invention may be analysed in vitro for SCD activity using an assay based on the production of [^3H]H2O, which is released during the enzyme-catalyzed generation of the monounsaturated fatty acyl CoA product. The assay is performed in a 96-well filtration plates. The titrated substrate used in the assay is the [9,10-^3H] stearoyl Coenzyme A. After incubation for 6 minutes of SCD-containing rat microsomes (2 μg protein) and substrate (1 μM), the labelled fatty acid acyl-CoA species and microsomes are absorbed with charcoal and separated from [^3H]H2O by centrifugation. The formation of [^3H]H2O is used as a measure of SCD activity. Compounds at concentrations starting at 10 μM to 0.1 nM or vehicle (DMSO) are preincubated for 5 minutes with the microsomes before addition of the substrate. The concentration-responses are fitted with sigmoidal curves to obtain IC50 values.
`CC(C)COc1ccc(Cl)cc1Cn1cc(NC(=O)c2ccc3c(c2)CCN(C(=O)OC(C)(C)C)C3)cn1` [1,1-dimethylethyl 6-({[1-({5-chloro-2-[(2-methylpropyl)oxy]phenyl}methyl)-1H-pyrazol-4-yl]amino}carbonyl)-3,4-dihydro-2(1H)-isoquinolinecarboxylate]: the IC50 was over 10 µM. For `CC(C)c1ccc(Cn2cc(NC(=O)c3ccc4c(c3)CCN(C(=O)OC(C)(C)C)C4)cn2)cc1` [1,1-dimethylethyl 6-{[(1-{[4-(1-methylethyl)phenyl]methyl}-1H-pyrazol-4-yl)amino]carbonyl}-3,4-dihydro-2(1H)-isoquinolinecarboxylate], the IC50 was over 10 µM. As to `CC(C)c1nn(Cc2ccc(Cl)c(Cl)c2)cc1C(=O)Nc1ccc2c(c1)CCNC2` [1-[(3,4-dichlorophenyl)methyl]-3-(1-methylethyl)-N-(1,2,3,4-tetrahydro-6-isoquinolinyl)-1H-pyrazole-4-carboxamide hydrochloride], the IC50 is over 10 µM.

With `CC(C)c1c(C(=O)Nc2ccc3c(c2)CCNC3)cnn1Cc1ccc(Cl)c(Cl)c1` [1-[(3,4-dichlorophenyl)methyl]-5-(1-methylethyl)-N-(1,2,3,4-tetrahydro-6-isoquinolinyl)-1H-pyrazole-4-carboxamide hydrochloride], the IC50 was over 10 µM. Turning to `O=C(Nc1ccc2c(c1)CCNC2)c1cnn(Cc2ccc(Cl)cc2)c1` [1-[(4-chlorophenyl)methyl]-N-(1,2,3,4-tetrahydro-6-isoquinolinyl)-1H-pyrazole-4-carboxamide hydrochloride], the IC50 was 3.16 to 10 µM. In the case of `O=C(Nc1cnn(Cc2ccccc2Cl)c1)c1ccc2c(c1)CCNC2` [Example 8, N-{1-[(2-chlorophenyl)methyl]-1H-pyrazol-4-yl}-1,2,3,4-tetrahydro-6-isoquinolinecarboxamide], the IC50 is 3.16 to 10 µM.

Take `Cc1ccc(Cn2cc(NC(=O)c3ccc4c(c3)CCNC4)cn2)cc1` [Example 14, N-{1-[(4-methylphenyl)methyl]-1H-pyrazol-4-yl}-1,2,3,4-tetrahydro-6-isoquinolinecarboxamide]: the IC50 is 3.16 to 10 µM. To `O=C(Nc1ccc2c(c1)CCNC2)c1cnn(Cc2ccc(C(F)(F)F)cc2)c1` [N-(1,2,3,4-tetrahydro-6-isoquinolinyl)-1-{[4-(trifluoromethyl)phenyl]methyl}-1H-pyrazole-4-carboxamide hydrochloride] belongs over 10 µM; to `O=C(Nc1cnn(Cc2ccccc2C(F)(F)F)c1)c1ccc2c(c1)CCNC2` [N-(1-{[2-(trifluoromethyl)phenyl]methyl}-1H-pyrazol-4-yl)-1,2,3,4-tetrahydro-6-isoquinolinecarboxamide hydrochloride], 3.16 to 10 µM; to `CC(C)c1ccc(Cn2cc(NC(=O)c3ccc4c(c3)CCNC4)cn2)cc1` [N-(1-{[4-(1-methylethyl)phenyl]methyl}-1H-pyrazol-4-yl)-1,2,3,4-tetrahydro-6-isoquinolinecarboxamide hydrochloride], over 10 µM. Turning to `O=C(Nc1cnn(COc2ccc(Cl)cc2)c1)c1ccc2c(c1)CCNC2` [N-(1-{[(4-chlorophenyl)oxy]methyl}-1H-pyrazol-4-yl)-1,2,3,4-tetrahydro-6-isoquinolinecarboxamide hydrochloride], the IC50 was 3.16 to 10 µM. In the case of `O=C(Nc1cnn(Cc2ccccc2)c1)c1ccc2c(c1)CCNC2` [N-[1-(phenylmethyl)-1H-pyrazol-4-yl]-1,2,3,4-tetrahydro-6-isoquinolinecarboxamide hydrochloride] it was 3.16 to 10 µM; in that of `CC(C)COc1ccc(Cl)cc1Cn1cc(NC(=O)c2ccc3c(c2)CCNC3)cn1` [N-[1-({5-chloro-2-[(2-methylpropyl)oxy]phenyl}methyl)-1H-pyrazol-4-yl]-1,2,3,4-tetrahydro-6-isoquinolinecarboxamide hydrochloride], over 10 µM; in that of `N#Cc1cccc(Cn2cc(NC(=O)c3ccc4c(c3)CCNC4)cn2)c1` [N-{1-[(3-cyanophenyl)methyl]-1H-pyrazol-4-yl}-1,2,3,4-tetrahydro-6-isoquinolinecarboxamide hydrochloride], 3.16 to 10 µM.
